In patent US10499644B2, “Substituted oxadiazoles for combating phytopathogenic fungi” (BASF SE, priority 2015, dated 2019):

Legend:
Puccinia recondita [1] = assay: Curative control of brown rust on wheat (glass house trial); type: in vivo, Puccinia recondita on wheat; conditions: 63 ppm active compound, sprayed after inoculation, assessed after 8 days; untreated plants 90%
Experimental: (§1) The spray solutions were prepared in several steps: the stock solutions were prepared: a mixture of acetone and/or dimethylsulfoxide and the wetting agent/emulsifier Wettol, which is based on ethoxylated alkylphenoles, in a relation (volume) solvent-emulsifier of 99 to 1 was added to 25 mg of the compound to give a total of 5 ml. Water was then added to total volume of 100 ml. This stock solution was diluted with the described solvent-emulsifier-water mixture to the given concentration.
The first two developed leaves of pot-grown wheat seedling were dusted with spores of Puccinia recondita. To ensure the success the artificial inoculation, the plants were transferred to a humid chamber without light and a relative humidity of 95 to 99% and 20 to 24° C. for 24 hours. The next day the plants were cultivated for 3 days in a greenhouse chamber at 20 to 24° C. and a relative humidity between 65 and 70%. Then the plants were sprayed to run-off with an aqueous suspension, containing the concentration of active ingredient or their mixture as described below. The plants were allowed to air-dry. Then the trial plants were cultivated for 8 days in a greenhouse chamber at 20 to 24° C. and a relative humidity between 65 and 70%. The extent of fungal attack on the leaves was visually assessed as % diseased leaf area.

Puccinia recondita [2] = assay: Preventative control of brown rust on wheat (glass house trial); type: in vivo, Puccinia recondita on wheat; conditions: 63 ppm active compound, sprayed 1 day before inoculation, assessed after 6 days; untreated plants 90%
Experimental: as §1
The first two developed leaves of pot-grown wheat seedling were sprayed to run-off with an aqueous suspension, containing the concentration of active ingredient or their mixture as described below. The next day the plants were inoculated with spores of Puccinia recondita. To ensure the success the artificial inoculation, the plants were transferred to a humid chamber without light and a relative humidity of 95 to 99% and 20 to 24° C. for 24 hours. Then the trial plants were cultivated for 6 days in a greenhouse chamber at 20 to 24° C. and a relative humidity between 65 and 70%. The extent of fungal attack on the leaves was visually assessed as % diseased leaf area.

`CC(=O)NC1(c2ccc(-c3noc(C(F)(F)F)n3)cc2)CC1` [Ex-2, N-[1-[4-[5-(trifluoromethyl)-1,2,4-oxadiazol-3-yl]phenyl]-cyclopropyl]acetamide] gave a diseased leaf area (Puccinia recondita [1]) of 1% and a diseased leaf area (Puccinia recondita [2]) of 2%.
